What was measured:
Assay type in all cases: in vivo
Echinochloa crus-galli [1] = assay: Test Example 11: herbicidal effect test by soil treatment in paddy field; settings: 120 g/10a active ingredient, 14 days after treatment
Method in brief: (§1)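 Pre-emergence paddy test, 120 g a.i./10 are, emulsifiable concentrate diluted in water and added dropwise to ~3 cm flood water right after sowing (30 seeds/species, 0–1 cm depth, fertilized puddled soil). Greenhouse; 2 replicates; dry-weight suppression (%) vs untreated, day 14.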

Lindernia pyxidaria [2] = assay: as above; settings: 120 g/10a active ingredient, 14 days after treatment
Method in brief: as §1

Monochoria vaginalis [3] = assay: as above; settings: 120 g/10a active ingredient, 14 days after treatment
Method in brief: as §1

Scirpus juncoides [4] = assay: as above; settings: 120 g/10a active ingredient, 14 days after treatment
Method in brief: as §1

Echinochloa crus-galli [5] = assay: Test Example 12: herbicidal effect test by treatment during growing period in paddy field; settings: 120 g/10a; treatment seven days after sowing in flooded paddy pot; assessed 14 days after treatment
Method in brief: (§2)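 Seeds (30 per species) are sown shallowly into fertilized, puddled paddy soil kept under ~3 cm of water in a greenhouse. One week later, compound formulated as an emulsifiable concentrate is applied dropwise to the water at 120 g a.i./10 are. After 14 days, dry weights give percent suppression against untreated controls.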

Lindernia pyxidaria [6] = assay: as above; settings: 120 g/10a; treatment seven days after sowing in flooded paddy pot; assessed 14 days after treatment
Method in brief: as §2

Monochoria vaginalis [7] = assay: as above; settings: 120 g/10a; treatment seven days after sowing in flooded paddy pot; assessed 14 days after treatment
Method in brief: as §2

Scirpus juncoides [8] = assay: as above; settings: 120 g/10a; treatment seven days after sowing in flooded paddy pot; assessed 14 days after treatment
Method in brief: as §2

Amaranthus viridis [9] = assay: Test Example 13: herbicidal effect test by soil treatment in upland field; settings: 120 g/10a, 14 days after treatment
Method in brief: (§3)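 Pre-emergence soil spray, 1 d post-sowing; emulsifiable concentrate in water, 100 L/10 are, 120 g a.i./10 are. Pots 36 cm^2, alluvial soil, 20 seeds/species in top 1 cm. n=2; read 14 d; suppression % = (1 − treated/untreated mean dry weight) × 100.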

Chenopodium album [10] = assay: as above; settings: 120 g/10a, 14 days after treatment
Method in brief: as §3

Echinochloa crus-galli [11] = assay: as above; settings: 120 g/10a, 14 days after treatment
Method in brief: as §3

crabgrass [12] = assay: as above; settings: 120 g/10a, 14 days after treatment
Method in brief: as §3

Chenopodium album [13] = assay: Test Example 14: herbicidal effect test by foliage treatment in upland field; settings: 7 days after sowing, 120 g/10a, 14 days after treatment
Method in brief: (§4)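 Dry-weight read-out: suppression (%) = (1 − mean treated dry weight/mean untreated dry weight)×100, at 14 days post-spray, two replicate plots per concentration. Spray applied 7 days after sowing, 120 g a.i. per 10 are.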

crabgrass [14] = assay: as above; settings: 7 days after sowing, 120 g/10a, 14 days after treatment
Method in brief: as §4

Amaranthus viridis [15] = assay: as above; settings: 7 days after sowing, 120 g/10a, 14 days after treatment
Method in brief: as §4

Echinochloa crus-galli [16] = assay: as above; settings: 7 days after sowing, 120 g/10a, 14 days after treatment
Method in brief: as §4

Row | Structure (SMILES) | Weed suppression rate (%) Echinochloa crus-galli (Echinochloa crus-galli [1]) | Weed suppression rate (%) Lindemia pyxidaria (Lindernia pyxidaria [2]) | Weed suppression rate (%) Monochoria vaginalis (Monochoria vaginalis [3]) | Weed suppression rate (%) Scirpus juncoides (Scirpus juncoides [4]) | Weed suppression rate (%) Echinochloa crus-galli (Echinochloa crus-galli [5]) | Weed suppression rate (%) Lindemia pyxidaria (Lindernia pyxidaria [6]) | Weed suppression rate (%) Monochoria vaginalis (Monochoria vaginalis [7]) | Weed suppression rate (%) Scirpus juncoides (Scirpus juncoides [8]) | herbicidal effect, Amaranthus viridis (Amaranthus viridis [9]) | herbicidal effect, Chenopodium album (Chenopodium album [10]) | herbicidal effect, Echinochloa crus-galli (Echinochloa crus-galli [11]) | herbicidal effect, Crabgrass (crabgrass [12]) | herbicidal effect, Chenopodium album (Chenopodium album [13]) | herbicidal effect, Crabgrass (crabgrass [14]) | herbicidal effect, Amaranthus viridis (Amaranthus viridis [15]) | herbicidal effect, Echinochloa crus-galli (Echinochloa crus-galli [16])
1 | Cc1ccc(S(=O)(=O)n2ncn(C(=O)N(c3ccc(F)cc3Cl)C(C)C)c2=O)cc1 [Compound 11-644] | 90% | 80% | 80% | 90% | 90% | 80% | 80% | 90% | 90% | 80% | 80% | 90% | 80% | 90% | 90% | 80%
2 | CC(C)N(C(=O)n1cnn(S(=O)(=O)C(C)C)c1=O)c1ccc(Cl)cn1 [Compound 11-85] | 90% | 80% | 80% | 90% | 90% | 90% | 90% | 70% | 90% | 60% | 100% | 100% | 80% | 90% | 90% | 80%
3 | CCN(C)S(=O)(=O)n1ncn(C(=O)N(c2ccc(F)cc2F)C(C)C)c1=O [Compound 11-1098] | 100% | 100% | 80% | 100% | 100% | 70% | 80% | 70% | 90% | 100% | 100% | 100% | 80% | 90% | 90% | 80%
4 | CC(C)N(C(=O)n1cnn(S(=O)(=O)N2CCCCC2)c1=O)c1ccc(F)cc1F [Compound 11-1102] | 100% | 100% | 90% | 90% | 100% | 70% | 80% | 90% | 90% | 100% | 100% | 100% | 80% | 90% | 90% | 80%
5 | CCS(=O)(=O)n1ncn(C(=O)N(c2ccc(F)cc2F)C(C)C)c1=O [Compound 11-46] | 100% | 100% | 100% | 90% | 100% | 100% | 90% | 90% | 100% | 100% | 100% | 100% | 90% | 100% | 60% | 100%
6 | CC(C)N(C(=O)n1cnn(S(=O)(=O)C2CCCCC2)c1=O)c1c(F)cccc1F [Compound 11-296] | 100% | 100% | 70% | 100% | 100% | 80% | 90% | 90% | 60% | 70% | 100% | 100% | 70% | 100% | 90% | 100%
7 | CC(C)N(C(=O)n1cnn(S(=O)(=O)C2CCCCC2)c1=O)c1ccc(F)cc1F [Compound 11-294] | 100% | 100% | 100% | 100% | 100% | 80% | 90% | 90% | 90% | 80% | 80% | 90% | 80% | 90% | 90% | 80%
8 | CC(C)N(C(=O)n1cnn(S(=O)(=O)C(C)C)c1=O)c1c(F)cccc1F [Compound 11-61] | 100% | 100% | 80% | 100% | 100% | 100% | 100% | 80% | 90% | 80% | 100% | 100% | 70% | 100% | 70% | 100%
9 | CC(C)N(C(=O)n1cnn(S(=O)(=O)C2CC2)c1=O)c1ccc(F)cc1 [Compound 11-162] | 100% | 90% | 90% | 90% | 90% | 80% | 80% | 90% | 90% | 80% | 80% | 90% | 80% | 90% | 90% | 80%

— US11076595B2, “1-(n,n-disubstituted carbamoyl) 4-(substituted sulfonyl)triazolin-5-one derivative, 4-(n,n-disubstituted carbamoyl) 1-(substituted sulfonyl)triazolin-5-one derivative, and herbicide containing said derivative as active ingredient” (HOKKO CHEMICAL INDUSTRY CO., LTD., priority 2017, dated 2021)
